Our source for the relative viability values is the supplement of paper PMC10307832.

Common to all, as to assay: relative viability (nuclei count vs DMSO), 5 days (fraction); higher = more cells survive
Compound in the experiment “AZD1208 + Tozasertib”: N[C@@H]1CCCN(c2c(/C=C3\SC(=O)NC3=O)cccc2-c2ccccc2)C1 [AZD1208] + Cc1cc(Nc2cc(N3CCN(C)CC3)nc(Sc3ccc(NC(=O)C4CC4)cc3)n2)n[nH]1 [Tozasertib] (partner 0.1 µM)
Put shortly: (§1)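 Five library-drug doses in √10 steps were combined with a fixed anchor-drug dose, or a single drug was given alone, by pin tool to lung cancer cell lines in 1536-well plates the day after seeding. Nuclei were stained and counted after 5 days. Relative viability is the nuclei count in treated wells over that in vehicle wells, taken as the median of duplicate plates.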

Compound in the experiment “AZD1208 + Pemetrexed”: N[C@@H]1CCCN(c2c(/C=C3\SC(=O)NC3=O)cccc2-c2ccccc2)C1 [AZD1208] + Nc1nc2[nH]cc(CCc3ccc(C(=O)N[C@@H](CCC(=O)O)C(=O)O)cc3)c2c(=O)[nH]1 [Pemetrexed] (partner 0.2 µM)
Put shortly:
as §1

Compound in the experiment “XMD14-99 + Dasatinib”: CN1CCN(CC1)C2=CC(=C(C=C2)NC3=NC(=C(S3)C(=O)C4=C(C=CC=C4Cl)Cl)N)OC [XMD14-99] + Cc1nc(Nc2ncc(C(=O)Nc3c(C)cccc3Cl)s2)cc(N2CCN(CCO)CC2)n1 [Dasatinib] (partner 0.075 µM)
Put shortly: as §1

Compound in the experiment “XMD14-99 + Navitoclax”: CN1CCN(CC1)C2=CC(=C(C=C2)NC3=NC(=C(S3)C(=O)C4=C(C=CC=C4Cl)Cl)N)OC [XMD14-99] + CC1(C)CCC(c2ccc(Cl)cc2)=C(CN2CCN(c3ccc(C(=O)NS(=O)(=O)c4ccc(N[C@H](CCN5CCOCC5)CSc5ccccc5)c(S(=O)(=O)C(F)(F)F)c4)cc3)CC2)C1 [Navitoclax] (partner 0.5 µM)
Put shortly:
as §1

In the case of NCI-H3122, the relative viability with AZD1208 + Tozasertib (first compound 0.08 µM) was found to be 0.402; with AZD1208 + Tozasertib (first compound 0.253 µM) it was 0.315; with AZD1208 + Tozasertib (first compound 0.8 µM) it was 0.353; in the experiment with AZD1208 + Tozasertib (first compound 2.53 µM), 0.348; with AZD1208 + Tozasertib (first compound 8 µM), 0.369; with AZD1208 + Pemetrexed (first compound 0.08 µM), 0.201. The relative viability was determined as 0.187 with AZD1208 + Pemetrexed (first compound 0.253 µM); 0.195 with AZD1208 + Pemetrexed (first compound 0.8 µM); 0.207 with AZD1208 + Pemetrexed (first compound 2.53 µM); 0.187 with AZD1208 + Pemetrexed (first compound 8 µM); 0.81 with XMD14-99 + Dasatinib (first compound 0.08 µM); 0.745 with XMD14-99 + Dasatinib (first compound 0.8 µM). For the same cell line, the relative viability amounted to 0.754 with XMD14-99 + Dasatinib (first compound 2.53 µM); 0.503 in the experiment with XMD14-99 + Dasatinib (first compound 8 µM); 0.989 with XMD14-99 + Navitoclax (first compound 0.08 µM); 0.945 with XMD14-99 + Navitoclax (first compound 0.8 µM); 0.902 with XMD14-99 + Navitoclax (first compound 2.53 µM); 0.724 with XMD14-99 + Navitoclax (first compound 8 µM).

For PC-3 [JPC-3], the relative viability was determined as 0.9 in the experiment with AZD1208 + Tozasertib (first compound 0.08 µM); 0.989 with AZD1208 + Tozasertib (first compound 0.253 µM); 0.906 with AZD1208 + Tozasertib (first compound 0.8 µM); 0.886 with AZD1208 + Tozasertib (first compound 2.53 µM); 0.78 with AZD1208 + Tozasertib (first compound 8 µM); 1.22 in the experiment with AZD1208 + Pemetrexed (first compound 0.08 µM). In addition, the relative viability was 1.04 with AZD1208 + Pemetrexed (first compound 0.253 µM); 1.09 with AZD1208 + Pemetrexed (first compound 0.8 µM); 1.18 in the experiment with AZD1208 + Pemetrexed (first compound 2.53 µM); 1.2 with AZD1208 + Pemetrexed (first compound 8 µM); 0.915 with XMD14-99 + Dasatinib (first compound 0.08 µM); 0.972 with XMD14-99 + Dasatinib (first compound 0.8 µM). The relative viability stood at 0.99 with XMD14-99 + Dasatinib (first compound 2.53 µM); 0.907 in the experiment with XMD14-99 + Dasatinib (first compound 8 µM); 0.794 with XMD14-99 + Navitoclax (first compound 0.08 µM); 0.756 with XMD14-99 + Navitoclax (first compound 0.8 µM); 0.768 with XMD14-99 + Navitoclax (first compound 2.53 µM); 0.667 with XMD14-99 + Navitoclax (first compound 8 µM).

As for PC-14, the relative viability stood at 0.554 with AZD1208 + Tozasertib (first compound 0.08 µM); 0.55 with AZD1208 + Tozasertib (first compound 0.253 µM); 0.467 with AZD1208 + Tozasertib (first compound 0.8 µM); 0.503 with AZD1208 + Tozasertib (first compound 2.53 µM); 0.463 with AZD1208 + Tozasertib (first compound 8 µM); 0.125 with AZD1208 + Pemetrexed (first compound 0.08 µM). In addition, the relative viability with AZD1208 + Pemetrexed (first compound 0.253 µM) is 0.132; in the experiment with AZD1208 + Pemetrexed (first compound 0.8 µM) it was 0.14; with AZD1208 + Pemetrexed (first compound 2.53 µM) it was 0.153; in the experiment with AZD1208 + Pemetrexed (first compound 8 µM), 0.165; with XMD14-99 + Dasatinib (first compound 0.08 µM), 0.254; with XMD14-99 + Dasatinib (first compound 0.8 µM) it was 0.226. For the same cell line, the relative viability with XMD14-99 + Dasatinib (first compound 2.53 µM) was 0.224; with XMD14-99 + Dasatinib (first compound 8 µM) it was 0.11; with XMD14-99 + Navitoclax (first compound 0.08 µM) it was 0.983; with XMD14-99 + Navitoclax (first compound 0.8 µM), 0.902; with XMD14-99 + Navitoclax (first compound 2.53 µM) it was 0.943; in the experiment with XMD14-99 + Navitoclax (first compound 8 µM), 0.726.

RERF-LC-KJ: the relative viability in the experiment with AZD1208 + Tozasertib (first compound 0.08 µM) turned out to be 0.505; in the experiment with AZD1208 + Tozasertib (first compound 0.253 µM), 0.423; with AZD1208 + Tozasertib (first compound 0.8 µM) it was 0.56; with AZD1208 + Tozasertib (first compound 2.53 µM) it was 0.519; in the experiment with AZD1208 + Tozasertib (first compound 8 µM), 0.384; with AZD1208 + Pemetrexed (first compound 0.08 µM) it was 0.515. Further, the relative viability in the experiment with AZD1208 + Pemetrexed (first compound 0.253 µM) was 0.441; with AZD1208 + Pemetrexed (first compound 0.8 µM), 0.505; with AZD1208 + Pemetrexed (first compound 2.53 µM) it was 0.476; with AZD1208 + Pemetrexed (first compound 8 µM), 0.491; with XMD14-99 + Dasatinib (first compound 0.08 µM) it was 0.883; with XMD14-99 + Dasatinib (first compound 0.8 µM) it was 0.869. For the same cell line, the relative viability in the experiment with XMD14-99 + Dasatinib (first compound 2.53 µM) was found to be 0.764; with XMD14-99 + Dasatinib (first compound 8 µM), 0.608; in the experiment with XMD14-99 + Navitoclax (first compound 0.08 µM), 1.01; with XMD14-99 + Navitoclax (first compound 0.8 µM) it was 0.829; with XMD14-99 + Navitoclax (first compound 2.53 µM) it was 0.926; in the experiment with XMD14-99 + Navitoclax (first compound 8 µM), 0.607.

As to SK-LU-1, the relative viability with AZD1208 + Tozasertib (first compound 0.08 µM) worked out at 0.298; in the experiment with AZD1208 + Tozasertib (first compound 0.253 µM), 0.298; with AZD1208 + Tozasertib (first compound 0.8 µM), 0.246; with AZD1208 + Tozasertib (first compound 2.53 µM), 0.285; with AZD1208 + Tozasertib (first compound 8 µM), 0.22; with AZD1208 + Pemetrexed (first compound 0.08 µM), 0.956. For the same cell line, the relative viability with AZD1208 + Pemetrexed (first compound 0.253 µM) stood at 1.02; with AZD1208 + Pemetrexed (first compound 0.8 µM) it was 0.988; with AZD1208 + Pemetrexed (first compound 2.53 µM), 0.944; with AZD1208 + Pemetrexed (first compound 8 µM), 0.869; in the experiment with XMD14-99 + Dasatinib (first compound 0.08 µM), 0.182; with XMD14-99 + Dasatinib (first compound 0.8 µM) it was 0.204. Also, the relative viability with XMD14-99 + Dasatinib (first compound 2.53 µM) stood at 0.181; in the experiment with XMD14-99 + Dasatinib (first compound 8 µM), 0.163; with XMD14-99 + Navitoclax (first compound 0.08 µM), 0.796; with XMD14-99 + Navitoclax (first compound 0.8 µM), 1.02; with XMD14-99 + Navitoclax (first compound 2.53 µM) it was 0.886; in the experiment with XMD14-99 + Navitoclax (first compound 8 µM), 0.405.

Turning to SK-MES-1, the relative viability in the experiment with AZD1208 + Tozasertib (first compound 0.08 µM) was found to be 1; in the experiment with AZD1208 + Tozasertib (first compound 0.253 µM) it was 0.956; in the experiment with AZD1208 + Tozasertib (first compound 0.8 µM), 0.903; in the experiment with AZD1208 + Tozasertib (first compound 2.53 µM), 0.853; in the experiment with AZD1208 + Tozasertib (first compound 8 µM), 0.744; in the experiment with AZD1208 + Pemetrexed (first compound 0.08 µM), 0.993. Further, the relative viability with AZD1208 + Pemetrexed (first compound 0.253 µM) was 0.999; with AZD1208 + Pemetrexed (first compound 0.8 µM) it was 0.956; with AZD1208 + Pemetrexed (first compound 2.53 µM), 0.842; with AZD1208 + Pemetrexed (first compound 8 µM), 0.864; in the experiment with XMD14-99 + Dasatinib (first compound 0.08 µM) it was 0.381; with XMD14-99 + Dasatinib (first compound 0.8 µM), 0.398. The relative viability is 0.336 in the experiment with XMD14-99 + Dasatinib (first compound 2.53 µM); 0.225 with XMD14-99 + Dasatinib (first compound 8 µM); 1.26 with XMD14-99 + Navitoclax (first compound 0.08 µM); 1.18 in the experiment with XMD14-99 + Navitoclax (first compound 0.8 µM); 1.05 with XMD14-99 + Navitoclax (first compound 2.53 µM); 0.821 with XMD14-99 + Navitoclax (first compound 8 µM).

Consider SW 1573, for which the relative viability with AZD1208 + Tozasertib (first compound 0.08 µM) is 0.22; with AZD1208 + Tozasertib (first compound 0.253 µM), 0.175; with AZD1208 + Tozasertib (first compound 0.8 µM), 0.178; with AZD1208 + Tozasertib (first compound 2.53 µM) it was 0.129; in the experiment with AZD1208 + Tozasertib (first compound 8 µM) it was 0.149; with AZD1208 + Pemetrexed (first compound 0.08 µM), 0.782. The relative viability with AZD1208 + Pemetrexed (first compound 0.253 µM) amounted to 0.748; with AZD1208 + Pemetrexed (first compound 0.8 µM) it was 0.717; with AZD1208 + Pemetrexed (first compound 2.53 µM), 0.646; with AZD1208 + Pemetrexed (first compound 8 µM), 0.749; in the experiment with XMD14-99 + Dasatinib (first compound 0.08 µM), 0.401; in the experiment with XMD14-99 + Dasatinib (first compound 0.8 µM) it was 0.42. In addition, the relative viability with XMD14-99 + Dasatinib (first compound 2.53 µM) was 0.52; in the experiment with XMD14-99 + Dasatinib (first compound 8 µM), 0.325; in the experiment with XMD14-99 + Navitoclax (first compound 0.08 µM), 0.961; with XMD14-99 + Navitoclax (first compound 0.8 µM), 1.15; with XMD14-99 + Navitoclax (first compound 2.53 µM), 1.05; with XMD14-99 + Navitoclax (first compound 8 µM) it was 0.765.
